Experimental data reported in PubChem BioAssay AID1054 (Sanford-Burnham Center for Chemical Genomics, 2008).
“And” between values parts separate entries of the source, which are not always exact repeats. Identical values can stand only once. The source made the active and inactive calls. No rule for the calls is given here.

biological target: Dual specificity protein phosphatase 6 (Rattus norvegicus) (UniProt Q64346); assay: redox-state modulators of MKP-3 activity, biochemical, rat enzyme, secondary assay (AID 1054); conditions: recombinant MKP-3 phosphatase activity
Sequence (Q64346 whole entry, looked up): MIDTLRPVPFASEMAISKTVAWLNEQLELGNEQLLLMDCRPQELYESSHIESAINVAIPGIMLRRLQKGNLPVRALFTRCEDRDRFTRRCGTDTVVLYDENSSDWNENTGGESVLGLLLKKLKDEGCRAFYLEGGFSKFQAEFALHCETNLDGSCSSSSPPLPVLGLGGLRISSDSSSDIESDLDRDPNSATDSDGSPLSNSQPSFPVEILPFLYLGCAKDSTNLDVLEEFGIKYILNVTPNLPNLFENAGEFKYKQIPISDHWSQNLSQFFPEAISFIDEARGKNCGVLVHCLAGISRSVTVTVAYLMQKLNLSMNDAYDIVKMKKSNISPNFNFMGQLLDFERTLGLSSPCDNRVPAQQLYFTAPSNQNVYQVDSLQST

SMILES	IC50
O=C(O)[C@@H](O)c1ccccc1	> 100 µM (inactive)
CCn1c(=O)n(C)c(=O)n([C@@H](Cc2ccccc2)C(N)=O)c1=O	> 100 µM (inactive)
CCOc1cc2c(c([N+](=O)[O-])c1)NC(C(=O)O)C1CC=CC21 (stereo unspecified)	> 100 µM (inactive)
CCOC(=O)C1Nc2c(OC)cccc2C2OCCCC12 (stereo unspecified)	> 100 µM (inactive)
CCCCCCCCCCCCCCCCCCC#CCCCCCCCC(=O)O	> 100 µM (inactive)
NC(=O)[C@H](Cc1ccccc1)n1c(=O)[nH]c(=O)n(-c2ccc(Cl)cc2)c1=O	> 100 µM (inactive)
Cc1ccc2c(c1Cl)NC(C(=O)O)C1CC(Sc3ccccc3[N+](=O)[O-])C(Cl)C21 (stereo unspecified)	42.6 µM
O=C(O)C1Nc2c(F)cccc2C2C=CCC12 (stereo unspecified)	17.2 µM
O=C(O)C1Nc2ccc(Br)cc2C2C=CCC12 (stereo unspecified)	12.3 µM
CCn1c(=O)n(Cc2ccc(N(O)O)cc2)c(=O)n([C@@H](Cc2ccccc2)C(=O)O)c1=O	> 100 µM (inactive)
CSc1nnc(-c2ccco2)c(-c2ccco2)n1	99.7 µM
NC(=O)[C@H](Cc1ccccc1)n1c(=O)n(Cc2ccc(Br)cc2)c(=O)n(-c2ccccc2)c1=O	> 100 µM (inactive)
O=c1/c(=C/c2ccccc2Cl)sc2nc3cc(Br)cnc3n12	2.5 µM
Cc1ccc(O)c2c1C1C=CCC1C(C(=O)O)N2 (stereo unspecified)	86.4 µM
O=S(=O)(O)c1ccc2cc(N=Nc3cc(S(=O)(=O)O)c4cccnc4c3O)ccc2c1	4.19 µM
Cc1cc(I)cc2c1NC(C(=O)O)C1CC=CC21 (stereo unspecified)	> 100 µM (inactive)
Cc1cc(NC(=O)Cc2cccs2)no1	13.1 µM
Cc1cc(NC(=O)/C=C/c2cccs2)no1	> 100 µM (inactive)
COc1cc(C(=S)NCc2ccc(O)cc2)ccc1O	16.1 µM
Cn1c(=O)n(-c2ccccc2)c(=O)n([C@@H](Cc2ccccc2)C(N)=O)c1=O	> 100 µM (inactive)
COc1cc(C(=S)NCc2ccc(F)c(C(F)(F)F)c2)ccc1O	1.5 µM
CCCCCCCCCCCCCCCCCCC#CCCCCCCCCCCCC(=O)O	> 100 µM (inactive)
Clc1cccc(Cl)c1COc1nnc(-c2cccs2)c(-c2cccs2)n1	> 100 µM (inactive)

SMILES	IC50
C#CCCCCCCCCCCCCCCCCCC	> 100 µM (inactive)
O=C(O)C1Nc2cc(C(F)(F)F)ccc2S(=O)(=O)N1 (stereo unspecified)	> 100 µM (inactive)
O=C(O)c1ccccc1-c1ccc(/C=c2\sc3nc4cc(Br)cnc4n3c2=O)o1	3.11 µM
O=C(O)C1Nc2c(cccc2N2CCOCC2)C2C=CCC12 (stereo unspecified)	60.1 µM
Cc1cc(O)c2c(c1)C1C=CCC1C(C(=O)O)N2 (stereo unspecified)	> 100 µM (inactive)
O=c1/c(=C/c2ccc(-c3cc(Cl)cc(Cl)c3)o2)sc2nc3cc(Br)cnc3n12	14.8 µM
COc1cc(C(=S)NCc2ccc(Cl)c(C)c2)ccc1O	10.5 µM
O=C(O)C1Nc2c(I)cccc2C2C=CCC12 (stereo unspecified)	> 100 µM (inactive)
CCCn1c(=O)nc(NCCc2ccccc2)[nH]c1=O	> 100 µM (inactive)
COc1ccc2c(c1)C1C=CCC1C(C(=O)O)N2 (stereo unspecified)	32 µM
Cc1cc(NC(=O)c2cccs2)no1	> 100 µM (inactive)
Cc1ccccc1Cn1c(=O)n(-c2ccccc2)c(=O)n([C@H](C(=O)O)C(C)C)c1=O	> 100 µM (inactive)
CCCCCCCCCCCCCCCCCCC=CCCCCCC(=O)O	> 100 µM (inactive)
O=C(O)C1Nc2c(O)cccc2C2C=CCC12 (stereo unspecified)	10.5 µM and 14.6 µM
COCCCNc1nc(=O)n(-c2ccc(F)cc2)c(=O)[nH]1	> 100 µM (inactive)
COc1cccc2c1NC(C(=O)O)C1CC=CC21 (stereo unspecified)	23.1 µM and 13.1 µM
CCOC(=O)C1=C(c2ccccc2)N=c2sc(=Cc3cc(OC)c(OC)c(OC)c3)c(=O)n2C1c1cccs1 (stereo unspecified)	> 50 µM (inactive)
O=C(O)C1Nc2c(O)cc(Cl)c([N+](=O)[O-])c2C2C=CCC12 (stereo unspecified)	35.4 µM
Cn1c(=O)n(CC(N)=O)c(=O)n(-c2ccccc2)c1=O	> 100 µM (inactive)
O=C1CC(=O)N(Cc2ccco2)C(=O)N1	> 100 µM (inactive)
NS(=O)(=O)c1ccc2c(c1)C1C=CCC1C(C(=O)O)N2 (stereo unspecified)	> 100 µM (inactive)
O=C(O)c1ccc([N+](=O)[O-])c2c1NC(C(=O)O)C1CC=CC21 (stereo unspecified)	> 100 µM (inactive)
COc1cc(C(=S)NC(C)(C)C)ccc1O	> 100 µM (inactive)

SMILES	IC50
CCCCOC(=O)c1ccc2c(c1)C1C=CCC1C(C(=O)O)N2 (stereo unspecified)	4.02 µM
Cc1ccc2c(nc3s/c(=C\c4ccc(-c5ccccc5C(=O)O)o4)c(=O)n32)c1C	21.6 µM
CCn1c(=O)n(Cc2ccccc2C)c(=O)n([C@@H](Cc2ccccc2)C(=O)O)c1=O	> 100 µM (inactive)
Cc1ccc2c(c1)C1C=CCC1C(C(=O)O)N2 (stereo unspecified)	7.92 µM
Cc1ccc(CC(=O)Nc2cc(C)on2)cc1	> 100 µM (inactive)
O=C(Oc1ccc2ccccc2c1)c1ccc2c(c1)C1C=CCC1C(C(=O)O)N2 (stereo unspecified)	24.7 µM
O=c1/c(=C/c2ccc(-c3ccccc3[N+](=O)[O-])o2)sc2nc3cc(Br)cnc3n12	29.8 µM
O=C(Oc1ccc2c(c1)C1C=CCC1C(C(=O)O)N2)c1ccc(Cl)cc1Cl (stereo unspecified)	15.6 µM
CC(C)COC(=O)c1ccc2c(c1)C1C=CCC1C(C(=O)O)N2 (stereo unspecified)	55.8 µM
CCOC(=O)C1Nc2c(O)cccc2C2C=CCC12 (stereo unspecified)	> 100 µM (inactive)
Cc1ccccc1Cn1c(=O)n(-c2ccccc2)c(=O)n([C@@H](C)C(N)=O)c1=O	> 100 µM (inactive)
CCCCCCCCCCCCCCCCCCC#CCCCCCCCCCCC(=O)O	> 100 µM (inactive)
O=C(O)C1Nc2cc(Cl)cc(Cl)c2C2C=CCC12 (stereo unspecified)	> 100 µM (inactive)
O=c1/c(=C/c2ccco2)sc2nc3cc(Br)cnc3n12	4.56 µM
COc1cc(C(=S)NC2CCCCC2)ccc1O	6.35 µM
O=C(O)[C@H](O)c1ccccc1	> 100 µM (inactive)
Cc1cc2nc3s/c(=C/c4ccc(-c5ccccc5C(=O)O)o4)c(=O)n3c2cc1C	14.8 µM
COc1cc(C(=S)NC2CCCC2)ccc1O	3.77 µM
COc1ccc(-n2c(=O)nc(NCCc3cccc(Cl)c3)[nH]c2=O)cc1	> 100 µM (inactive)
Cc1ccc2c(c1)NC(C(=O)O)NS2(=O)=O (stereo unspecified)	56.9 µM
Cn1c(SCC(=O)O)nc2sc3c(c2c1=O)CCC3	> 100 µM (inactive)
NC(=O)c1cccc2c1NC(C(=O)O)C1CC=CC21 (stereo unspecified)	55.5 µM
CCOC(=O)C1Nc2c(O)cc(C)cc2C2C=CCC12 (stereo unspecified)	> 100 µM (inactive)

SMILES	IC50
CCn1c(=O)n(CC)c(=O)n([C@@H](Cc2ccccc2)C(=O)O)c1=O	> 100 µM (inactive)
O=C(O)C1Nc2c(cccc2C(F)(F)F)C2C=CCC12 (stereo unspecified)	7.72 µM
COc1cc(C(=S)N2CCC(C)CC2)ccc1O	32.8 µM
CCCCCCCCC#CC#CCCCC(=O)O	> 100 µM (inactive)
O=C(O)c1ccc(N2C(=O)c3ccccc3C2=O)cc1	> 100 µM (inactive)
CCCCCCn1c(=O)nc(NCc2ccccc2OC)[nH]c1=O	> 100 µM (inactive)
COC(=O)c1ccccc1OC(=O)c1ccc2c(c1)C1C=CCC1C(C(=O)O)N2 (stereo unspecified)	17.2 µM
CCn1c(SCC(=O)O)nc2sc3c(c2c1=O)CCCC3	> 100 µM (inactive)
c1ccc(CSc2nnc(-c3ccco3)c(-c3ccco3)n2)cc1	24.2 µM
CCOC(=O)C1=C(C)N=c2sc(=Cc3ccc(OCC(=O)O)cc3)c(=O)n2C1c1ccc(SC)cc1 (stereo unspecified)	9.08 µM
CCN1CCN(C(=S)c2ccc(O)c(OC)c2)CC1	> 100 µM (inactive)
COCCCNc1nc(=O)n(-c2ccc(C)cc2)c(=O)[nH]1	> 100 µM (inactive)
O=C(O)C1Nc2ccccc2C2C=CCC12 (stereo unspecified)	25.2 µM
O=C1c2ccccc2CC1Sc1nnc(-c2ccco2)c(-c2ccco2)n1 (stereo unspecified)	42 µM
CCCCCc1nnc(NC(=O)Cc2cccs2)s1	17.2 µM
Cc1cc(C)c2nc3s/c(=C\c4ccc(-c5ccccc5C(=O)O)o4)c(=O)n3c2c1	11.7 µM
CC(C)[C@@H](C(N)=O)n1c(=O)[nH]c(=O)n(-c2ccc(Cl)cc2)c1=O	> 100 µM (inactive)
CCOC(=O)C1=C(C)N=c2s/c(=C\c3cc(Cl)c(OCC(=O)O)c(Cl)c3)c(=O)n2C1c1cccc(OC)c1 (stereo unspecified)	9.64 µM
COc1cc(C(=S)NCc2ccc(C)cc2C)ccc1O	2.12 µM
CCCCCC#CCC#CCC#CCC#CCCCC(=O)O	30.4 µM
Cc1cc(NC(=O)CCc2ccc(C)o2)no1	> 100 µM (inactive)
Cc1ccc(C)c2c1NC(C(=O)O)C1CC=CC21 (stereo unspecified)	> 100 µM (inactive)
CCOC(=O)C1Nc2c(OC)cccc2C2OCCC12 (stereo unspecified)	> 100 µM (inactive)

SMILES	IC50
Cc1cc(C)c2c(c1)NC(C(=O)O)C1CC=CC21 (stereo unspecified)	46.1 µM
CCCn1c(=O)nc(NCc2ccccc2OC)[nH]c1=O	> 100 µM (inactive)
O=C(O)C1Nc2c(cccc2S(=O)(=O)c2ccccc2)C2C=CCC12 (stereo unspecified)	58.7 µM
O=C(O)C(O)c1ccccc1 (stereo unspecified)	> 100 µM (inactive)
Cc1ccc(C)n1C(Cc1ccccc1)C(=O)O (stereo unspecified)	> 100 µM (inactive)
Cn1c(=O)n(-c2ccc(Cl)cc2)c(=O)n([C@@H](Cc2ccccc2)C(N)=O)c1=O	> 100 µM (inactive)
O=C(O)C1Nc2ccc([N+](=O)[O-])cc2C2C=CCC12 (stereo unspecified)	47.5 µM
O=C(O)C1Nc2c(Cl)cc(Cl)c(Cl)c2C2C=CCC12 (stereo unspecified)	12 µM
O=C(O)c1ccc2c(c1)C1C=CCC1C(C(=O)O)N2 (stereo unspecified)	15.5 µM
COc1cc(C(=S)N2CCCCC2)ccc1O	13.5 µM and 10.7 µM
CCOC(=O)c1ccccc1OC(=O)c1ccc2c(c1)C1C=CCC1C(C(=O)O)N2 (stereo unspecified)	6.01 µM
O=C(O)C1Nc2c(Cl)cc(Cl)cc2C2C=CCC12 (stereo unspecified)	53 µM
C[C@@H](C(N)=O)n1c(=O)n(Cc2ccccc2)c(=O)n(-c2ccccc2)c1=O	> 100 µM (inactive)
CCN(CC)C(=S)c1ccc(O)c(OC)c1	86.6 µM
CC1=C(C(=O)OC(C)C)C(c2ccc(Cl)cc2)n2c(sc(=Cc3ccc(OCC(=O)O)cc3)c2=O)=N1 (stereo unspecified)	10.1 µM
Clc1ccccc1CSc1nnc(-c2ccco2)c(-c2ccco2)n1	24.2 µM
Cc1ccc(-n2c(=O)[nH]c(=O)n([C@H](C(N)=O)C(C)C)c2=O)cc1	> 100 µM (inactive)
COc1cc(C(=S)NCc2ccccc2)ccc1O	4.46 µM
CCOC(=O)C1=C(C)N=c2s/c(=C/c3cc(Cl)c(OCC(=O)O)c(OC)c3)c(=O)n2C1c1ccccc1Cl (stereo unspecified)	9.75 µM
